Laboratory results reported in patent publication US10273248B2, “Glucose uptake inhibitors” (Kadmon Corporation LLC, priority 2015, dated 2019).

Test system: glycolysis in HT1080 cells
Test: Glycolysis assay: oligomycin plus compound, cellular ATP by Cell Titer Glo
Type: cell-based
Settings: 10 μM oligomycin, one hour
Summary of the method: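 Confluent HT1080 cells treated 1 h with compound plus 10 μM oligomycin to block mitochondrial ATP, so remaining ATP reflects glycolysis. Cellular ATP read by Cell Titer-Glo luminescence; IC50 derived from dose-response curves.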

[1] = Homo sapiens, HT-1080, 1 h, class symbols

| IC50 [1] | Structure (SMILES) | further results |
| --- | --- | --- |
| 0.01 to 0.1 µM | CC(C)C(=O)N1CCc2nc(-c3cccc(OCC(=O)NC(C)(C)C)c3)nc(Nc3ccc(-c4cn[nH]c4)cc3)c2C1 [Example 151, 2-(3-(4-((4-(1H-pyrazol-4-yl)phenyl)amino)-6-isobutyryl-5,6,7,8-tetrahydropyrido[4,3-d]pyrimidin-2-yl)phenoxy)-N-(tert-butyl)acetamide] | – |
| 0.01 to 0.1 µM | CCC(C)(C)NC(=O)COc1cccc(-c2nc3c(c(Nc4ccc(-c5cn[nH]c5)cc4)n2)CN(C(=O)C(C)C)CC3)c1 [Example 156, 2-(3-(4-((4-(1H-pyrazol-4-yl)phenyl)amino)-6-isobutyryl-5,6,7,8-tetrahydropyrido[4,3-d]pyrimidin-2-yl)phenoxy)-N-(tert-pentyl)acetamide] | – |
| 0.251 to 0.5 µM | CCN1CCc2nc(-c3cccc(OCC(=O)NC4CCC4)c3)nc(Nc3ccc(-c4cn[nH]c4)cc3)c2C1 [Example 160, 2-(3-(4-((4-(1H-pyrazol-4-yl)phenyl)amino)-6-ethyl-5,6,7,8-tetrahydropyrido[4,3-d]pyrimidin-2-yl)phenoxy)-N-cyclobutylacetamide] | – |
| 0.251 to 0.5 µM | CC(C)CNC(=O)COc1cccc(-c2nc3c(c(Nc4ccc(-c5cn[nH]c5)cc4)n2)CNCC3)c1 [Example 161, 2-(3-(4-((4-(1H-pyrazol-4-yl)phenyl)amino)-5,6,7,8-tetrahydropyrido[4,3-d]pyrimidin-2-yl)phenoxy)-N-isobutylacetamide] | – |
| 0.251 to 0.5 µM | CCN1CCc2nc(-c3cccc(OCC(=O)NCC(C)C)c3)nc(Nc3ccc(-c4cn[nH]c4)cc3)c2C1 [Example 164, 2-(3-(4-((4-(1H-pyrazol-4-yl)phenyl)amino)-6-ethyl-5,6,7,8-tetrahydropyrido[4,3-d]pyrimidin-2-yl)phenoxy)-N-isobutylacetamide] | – |
| 0.01 to 0.1 µM | CCC(C)(C)NC(=O)COc1cccc(-c2nc(Nc3ccc(-c4cn[nH]c4)cc3)c3ccncc3n2)c1 [Example 165, 2-(3-(4-((4-(1H-pyrazol-4-yl)phenyl)amino)pyrido[3,4-d]pyrimidin-2-yl)phenoxy)-N-(tert-pentyl)acetamide] | – |
| 0.01 to 0.1 µM | CCC(C)(C)NC(=O)COc1cccc(-c2nc3c(c(Nc4ccc(-c5cn[nH]c5)cc4)n2)COCC3)c1 [Example 166, 2-(3-(4-((4-(1H-pyrazol-4-yl)phenyl)amino)-7,8-dihydro-5H-pyrano[4,3-d]pyrimidin-2-yl)phenoxy)-N-(tert-pentyl)acetamide] | – |
| 0.01 to 0.1 µM | CC(C)(C)CNC(=O)COc1cccc(-c2nc3c(c(Nc4ccc(-c5cn[nH]c5)cc4)n2)CNCC3)c1 [Example 167, 2-(3-(4-((4-(1H-pyrazol-4-yl)phenyl)amino)-5,6,7,8-tetrahydropyrido[4,3-d]pyrimidin-2-yl)phenoxy)-N-neopentylacetamide] | – |
| 0.101 to 0.25 µM | CN1CCc2nc(-c3cccc(OCC(=O)NCC(C)(C)C)c3)nc(Nc3ccc(-c4cn[nH]c4)cc3)c2C1 [Example 168, 2-(3-(4-((4-(1H-pyrazol-4-yl)phenyl)amino)-6-methyl-5,6,7,8-tetrahydropyrido[4,3-d]pyrimidin-2-yl)phenoxy)-N-neopentylacetamide] | – |
| 0.101 to 0.25 µM | CCN1CCc2nc(-c3cccc(OCC(=O)NCC(C)(C)C)c3)nc(Nc3ccc(-c4cn[nH]c4)cc3)c2C1 [Example 170, 2-(3-(4-((4-(1H-pyrazol-4-yl)phenyl)amino)-6-ethyl-5,6,7,8-tetrahydropyrido[4,3-d]pyrimidin-2-yl)phenoxy)-N-neopentylacetamide] | – |

Continued, compound first:

| Structure (SMILES) | IC50 [1] | further results |
| --- | --- | --- |
| CC(C)C(=O)N1CCc2nc(-c3cccc(OCC(=O)NC4CCC4)c3)nc(Nc3ccc(-c4cn[nH]c4)cc3)c2C1 [Example 152, 2-(3-(4-((4-(1H-pyrazol-4-yl)phenyl)amino)-6-isobutyryl-5,6,7,8-tetrahydropyrido[4,3-d]pyrimidin-2-yl)phenoxy)-N-cyclobutylacetamide] | 0.01 to 0.1 µM | – |
| CCC(CC)NC(=O)COc1cccc(-c2nc3c(c(Nc4ccc(-c5cn[nH]c5)cc4)n2)CN(C(=O)C(C)C)CC3)c1 [Example 153, 2-(3-(4-((4-(1H-pyrazol-4-yl)phenyl)amino)-6-isobutyryl-5,6,7,8-tetrahydropyrido[4,3-d]pyrimidin-2-yl)phenoxy)-N-(pentan-3-yl)acetamide] | 0.01 to 0.1 µM | – |
| CC(C)CNC(=O)COc1cccc(-c2nc3c(c(Nc4ccc(-c5cn[nH]c5)cc4)n2)CN(C(=O)C(C)C)CC3)c1 [Example 154, 2-(3-(4-((4-(1H-pyrazol-4-yl)phenyl)amino)-6-isobutyryl-5,6,7,8-tetrahydropyrido[4,3-d]pyrimidin-2-yl)phenoxy)-N-isobutylacetamide] | 0.01 to 0.1 µM | – |
| CC(C)C(=O)N1CCc2nc(-c3cccc(OCC(=O)NCC(C)(C)C)c3)nc(Nc3ccc(-c4cn[nH]c4)cc3)c2C1 [Example 155, 2-(3-(4-((4-(1H-pyrazol-4-yl)phenyl)amino)-6-isobutyryl-5,6,7,8-tetrahydropyrido[4,3-d]pyrimidin-2-yl)phenoxy)-N-neopentylacetamide] | 0.01 to 0.1 µM | – |
| O=C(COc1cccc(-c2nc3c(c(Nc4ccc(-c5cn[nH]c5)cc4)n2)CNCC3)c1)NC1CCC1 [Example 157, 2-(3-(4-((4-(1H-pyrazol-4-yl)phenyl)amino)-5,6,7,8-tetrahydropyrido[4,3-d]pyrimidin-2-yl)phenoxy)-N-cyclobutylacetamide] | 0.101 to 0.25 µM | – |
| CC(C)N1CCc2nc(-c3cccc(OCC(=O)NC4CCC4)c3)nc(Nc3ccc(-c4cn[nH]c4)cc3)c2C1 [Example 159, 2-(3-(4-((4-(1H-pyrazol-4-yl)phenyl)amino)-6-isopropyl-5,6,7,8-tetrahydropyrido[4,3-d]pyrimidin-2-yl)phenoxy)-N-cyclobutylacetamide] | 0.251 to 0.5 µM | – |
| CC(C)N1CCc2nc(-c3cccc(OCC(=O)NCC(C)(C)C)c3)nc(Nc3ccc(-c4cn[nH]c4)cc3)c2C1 [Example 169, 2-(3-(4-((4-(1H-pyrazol-4-yl)phenyl)amino)-6-isopropyl-5,6,7,8-tetrahydropyrido[4,3-d]pyrimidin-2-yl)phenoxy)-N-neopentylacetamide] | – | IC50 (Homo sapiens, HT-1080, 1 h, number printed instead of class): 0.29 µM |
| CC(C(=O)Nc1cccc(-c2nc3c(c(Nc4ccc(-c5cn[nH]c5)cc4)n2)COC3)c1)N1CCOCC1 (stereo not drawn) [Example 171, N-(3-(4-((4-(1H-pyrazol-4-yl)phenyl)amino)-5,7-dihydrofuro[3,4-d]pyrimidin-2-yl)phenyl)-2-morpholinopropanamide] | 0.501 to 1 µM | – |
| CC(C(=O)Nc1cccc(-c2nc(Nc3ccc(-c4cn[nH]c4)cc3)c3occc3n2)c1)N1CCOCC1 (stereo not drawn) [Example 172, N-(3-(4-((4-(1H-pyrazol-4-yl)phenyl)amino)furo[3,2-d]pyrimidin-2-yl)phenyl)-2-morpholinopropanamide] | 0.101 to 0.25 µM | – |
| CC(C(=O)Nc1cccc(-c2nc(Nc3ccc(-c4cn[nH]c4)cc3)c3sccc3n2)c1)N1CCOCC1 (stereo not drawn) [Example 173, N-(3-(4-((4-(1H-pyrazol-4-yl)phenyl)amino)thieno[3,2-d]pyrimidin-2-yl)phenyl)-2-morpholinopropanamide] | 0.251 to 0.5 µM | – |
| O=C(Nc1cccc(-c2nc(Nc3ccc(-c4cn[nH]c4)cc3)c3sccc3n2)c1)c1ccncc1 [Example 174, N-(3-(4-((4-(1H-pyrazol-4-yl)phenyl)amino)thieno[3,2-d]pyrimidin-2-yl)phenyl)isonicotinamide] | 0.501 to 1 µM | – |
| O=C(Nc1cccc(-c2nc3c(c(Nc4ccc(-c5cn[nH]c5)cc4)n2)COC3)c1)c1ccncc1 [Example 175, N-(3-(4-((4-(1H-pyrazol-4-yl)phenyl)amino)-5,7-dihydrofuro[3,4-d]pyrimidin-2-yl)phenyl)isonicotinamide] | 0.501 to 1 µM | – |
| O=C(Nc1cccc(-c2nc(Nc3ccc(-c4cn[nH]c4)cc3)c3sccc3n2)c1)c1ccccn1 [Example 176, N-(3-(4-((4-(1H-pyrazol-4-yl)phenyl)amino)thieno[3,2-d]pyrimidin-2-yl)phenyl)picolinamide] | > 1 µM | – |
| O=C(Nc1cccc(-c2nc3c(c(Nc4ccc(-c5cn[nH]c5)cc4)n2)COC3)c1)c1ccccn1 [Example 177, N-(3-(4-((4-(1H-pyrazol-4-yl)phenyl)amino)-5,7-dihydrofuro[3,4-d]pyrimidin-2-yl)phenyl)picolinamide] | 0.01 to 0.1 µM | – |
| O=C(Nc1cccc(-c2nc(Nc3ccc(-c4cn[nH]c4)cc3)c3sccc3n2)c1)c1cccnc1 [Example 178, N-(3-(4-((4-(1H-pyrazol-4-yl)phenyl)amino)thieno[3,2-d]pyrimidin-2-yl)phenyl)nicotinamide] | – | IC50 (class symbols): 0.01 to 0.1 µM |
| O=C(COc1cccc(-c2nc(Nc3ccc(-c4cn[nH]c4)cc3)c3sccc3n2)c1)NC1CC(F)(F)C1 [Example 179, 2-(3-(4-((4-(1H-pyrazol-4-yl)phenyl)amino)thieno[3,2-d]pyrimidin-2-yl)phenoxy)-N-(3,3-difluorocyclobutyl)acetamide] | 0.251 to 0.5 µM | – |
| O=C(COc1cccc(-c2nc(Nc3ccc(-c4cn[nH]c4)cc3)c3sccc3n2)c1)NC1CCCCC1 [Example 180, 2-(3-(4-((4-(1H-pyrazol-4-yl)phenyl)amino)thieno[3,2-d]pyrimidin-2-yl)phenoxy)-N-cyclohexylacetamide] | 0.101 to 0.25 µM | – |
| CCC(CC)NC(=O)COc1cccc(-c2nc(Nc3ccc(-c4cn[nH]c4)cc3)c3sccc3n2)c1 [Example 181, 2-(3-(4-((4-(1H-pyrazol-4-yl)phenyl)amino)thieno[3,2-d]pyrimidin-2-yl)phenoxy)-N-(pentan-3-yl)acetamide] | 0.251 to 0.5 µM | – |
| CC(C)NC(=O)COc1cncc(-c2nc(Nc3ccc(-c4cn[nH]c4)cc3)c3ccsc3n2)c1 [Example 182, 2-((5-(4-((4-(1H-pyrazol-4-yl)phenyl)amino)thieno[2,3-d]pyrimidin-2-yl)pyridin-3-yl)oxy)-N-isopropylacetamide] | > 1 µM | – |
| CN1CCN(CC(=O)Nc2cccc(-c3nc(Nc4ccc(-c5cn[nH]c5)cc4)c4sccc4n3)c2)CC1 [Example 183, N-(3-(4-((4-(1H-pyrazol-4-yl)phenyl)amino)thieno[3,2-d]pyrimidin-2-yl)phenyl)-2-(4-methylpiperazin-1-yl)acetamide] | 0.501 to 1 µM | – |
